For data set [1], the system named is dIoN-CCI rat model of trigeminal neuropathic pain. Briefly: Trigeminal neuralgia model (dIoN-CCI), Von Frey mechanical threshold. Particulars: dIoN-CCI rats.
Source text: (§1) A common rat model of trigeminal neuralgia is a chronic compression injury model (CCI) caused by ligation of the infraorbital nerve (IoN). In the present study, an improved rat model of trigeminal neuropathic pain was used, in which CCI is induced by ligation of distal segment of IoN (dIoN). Wild type male Sprague-Dawley rats with body weight 250 to 260 grams underwent dIoN-CCI surgery experiments. The mechanical threshold of pain in rats without surgery experiments will exceed 6 grams. If the dIoN-CCI surgery is successful, it will reduce the pain threshold to less than 2 grams.
(§2) The mice were divided into the following 11 groups with 4 to 5 mice in each group. The formulation used for transdermal treatment is cream. […] The compound administration of each group starts on the third day after successful dIoN-CCI surgery. […] The method for detecting rat facial hypersensitivity is performed using Von Frey filaments. An analysis of variance (ANOVA) and Dunnett post hoc comparison test are used to compare the significance of the differences between different groups of data. The difference is significant with P<0.05.
The test system of another data set is HEK 293T cells. Briefly: Inhibition of reactive oxygen species production (ROS-Glo H2O2 Assay). The data set is classed as cell-based, human. As to conditions: 18 hours incubation. On the procedure: Mitochondrial reactive oxygen species-induced oxidative stress is the source of many diseases. This experiment is used to test whether the carbonyl-containing cyclic compounds provided by the present invention can reduce the production of reactive oxygen species. HEK 293T cells were divided into 96-well plates at 5000 cells per well, cultured in a 37° C. carbon dioxide incubator with serum-free Duchenne's Modified Eagle's Medium (DMEM) for 6 hours, and then representatives for compounds listed in Table 2 and 3 were added to a final concentration of 0, 0.1, 0.3, 1, 3, 10, 30 micromole/L, with each concentration in triplicate. After 18 hours of incubation, the reactive oxygen species detection kit (ROS-Glo™ H2O2 Assay) and the GloMax microplate fluorescence detector (Promega, USA) were used to detect reactive oxygen species production. At the same time, pioglitazone was used as a control. The amount of fluorescence is positively related to the production of reactive oxygen species. A three-parameter Sigmoid function curve was used to fit the obtained data. The abscissa represents the logarithmic value of the concentration, and the ordinate represents the percentage of reduced reactive oxygen species production relative to those of the control. Then EC50 value was calculated with professional software.

The test system of data set [2] is dIoN-CCI rat model of trigeminal neuropathic pain. Particulars: in vivo.
Source text: as §1, §2
A further data set deals with LN-229 cells. Briefly: Brain cancer model, LN-229 cells injected into the striatum, tumor volume. Format: in vivo, mouse. As to conditions: mice with LN-229 cells in striatum, 5 mg/kg body weight/day. On the procedure: The treatment lasted for a total of 30 days. The compounds was dissolved in DMSO and mixed into food pellets. The animals were given ad libitum access to the pellets. […] The difference is significant with P<0.05.

The nature of data set [3]: Blood-brain barrier permeability: brain concentration after a single injection. The data set is classed as in vivo, rat. As to conditions: male, rat, in vivo, ip, 10 mg/kg. On the procedure: The blood-brain barrier permeability of carbonyl-containing cyclic compounds is determined in in vivo studies. Healthy male rats used in the study were divided into compound group and control group. […] The brains were dissected, heated immediately at boiling water for 2 min, homogenized with methanol, and centrifuged. The upper layer was collected and dried under vacuum to remove solvents, and then resuspended in methanol. The above samples are filtered through a 0.45 micron nylon membrane, and then 20 microL of sample were load into a high-performance liquid chromatographic (HPLC) system (Model LC-16P, Shimadzu, Japan) to perform quantitative analysis.

Data set [4] deals with rat model of hyperglycemia-induced nephropathy. Briefly: Hyperglycemia-induced nephropathy model (streptozotocin). Format: in vivo. Particulars: streptozotocin rats, 5 mg/kg body weight/day in food, 90 days. On the procedure:
The method was as follows:
Wild type Sprague-Dawley rats were used. The compounds was dissolved in DMSO and mixed into food pellets. The animals were given ad libitum access to the pellets. […] In addition, 3 days before compound treatment, the animal of group 2 to 4 were given a single intraperitoneal injection of streptozotocin, and 3 days later, blood glucose levels were measured from tail veins using a glucose meter. Animals with blood glucose levels above 500˜650 milligrams per deciliter were considered as hyperglycemia and were used for further study. No any side effect, or significant body weight changes, or significant dietary changes were found during the administration. After 90 days after initiation of treatment, blood pressure values were measured with the tail cuff system. The day before the kidneys were harvested, animals were placed in metabolic cages for 24 h for urine collection, and albumin to creatinine ratio (ACR) was measured. Animals were then fasted for 12 hours and sacrificed under anesthesia with a 10% chloral hydrate solution (0.3 g/kg). Serum samples were isolated and biochemical parameters were analyzed with by enzyme colorimetry in an automatic analyzer (Roche) to determine the FBG (fasting blood glucose) level (unit millimole/L). In addition, fasting insulin (FINS) levels, where the units are milliIU/L, were determined by enzyme-linked immunosorbent assay (ELISA) method with anti-rat insulin antibodies, and TNF-α was detected by rat tumor necrosis factor-α (TNF-α) ELISA kit (BD). […] The difference is significant with P<0.05.

The structures appear in SMILES notation. Values joined by “and” are separate entries in the source; they are usually repeats but may differ in a detail not shown here. Identical values can stand only once.

What is called Cmax is the peak of the concentration-time curve. A word on the AUC(0-t): it is exposure summed from dosing to a finite time, without extrapolation to infinity. Consider `CCc1ccc(CC/C=C/c2ccc3c(c2)C(=O)CC3)cc1` [ELB00824, (E)-6-(4-(4-ethylphenyl)but-1-en-1-yl)-2,3-dihydro-1H-inden-1-one], for which the “duration of anti-allodynic effect (mechanical threshold 10 grams and above)” value in data set [1] (IP, 20 mg/kg body weight) came to 1.8 h; in data set [1] (oral, 20 mg/kg body weight), 0.7 h; in data set [1] (transdermal, 20 mg/kg body weight), 2.3 h. Moreover, the “mechanical pain threshold after 1 hour of administration” value in data set [1] (IP, 20 mg/kg body weight) is 12.8 ± 2.2 g; in data set [1] (oral, 20 mg/kg body weight), 6.8 ± 1.9 g; in data set [1] (transdermal cream containing 7% ELB00824, 20 mg/kg body weight), 19.8 ± 3.1 g. Further, in data set [1] (oral), the “minimum effective anti-allodynic dose” value worked out at 3 mg/kg. In addition, in data set [1] (oral 3 mg/kg body weight, Von Frey), the “mechanical threshold 2 hours after oral administration” value is 4.2 ± 0.8 g. Further, the “duration of the anti-allodynic effect” value in data set [1] (oral 10 mg/kg) came to 2 h. In addition, the “mechanical pain threshold 2 hours after oral administration” value in data set [1] (oral 10 mg/kg body weight, Von Frey) came out at 8.9 ± 2 g. For the same compound, the “anti-allodynic property relative to pioglitazone” value in data set [1] (oral, from minimum effective doses) was “about 100 times”. In addition, the “inhibition of active oxygen production (up to), compared to the DMSO control” value in the data set on HEK 293T cells (0-30 micromole/L) is “up to 45%”. The “side effect at the time of administration” value in data set [2] is reported as “no side effect”. The “tumor volume at 30 days compared with disease control group” value with LN-229 cells is given as “significant tumor volume reduction”. Moreover, the Cmax in data set [3] is 16.4 µM and 4830 ng/mL. Further, the AUC(0-t) in data set [3] (AUC0-6 h) was 18700 ng·h/mL; in data set [3] (AUC0-24 h), 31500 ng·h/mL. In data set [4], the “blood TNF-α level compared with disease control group” value was “significant TNF-α level reduction”. Besides, the “insulin resistance index ISI=ln (FBG*FINS) compared with disease control group” value in data set [4] is given as “significant ISI increase”. Further, the “urine albumin to creatinine ratio (ACR) compared with disease control group” value in data set [4] was “significant ACR reduction”.

Usually EC50 stands for the concentration at which the effect is half-maximal. A lower EC50 goes with higher potency in that assay. Compound `CCc1ccc(CC/C=C/c2ccc3c(c2)C(=O)COC3)cc1` [ELB001046, (E)-6-(4-(4-ethylphenyl)but-1-en-1-yl)isochroman-4-one] returned a concentration giving a half-maximal response (EC50) in the data set on HEK 293T cells (Homo sapiens, HEK-293T, 18 h) of less than 10 µM.

The record behind these values is patent US12545653B2, “Compound as PPAR agonist and application thereof” (USA Elixiria Biotech Inc., priority 2019, dated 2026).
